Reference: ChEMBL document CHEMBL5247677, “N-Aryl Indoles as a Novel Class of Potent NaV1.7 Inhibitors” (ACS Med Chem Lett, 2023)
pIC50: −log10 of the molar value. Converted amounts (≈) assume the structure as drawn. The source made the active and inactive calls. No cut-off for these calls is given here.

What was measured:
[1] = biological target: hERG (KCNH2) (Homo sapiens, UniProt Q12809); assay: Inhibition of hERG at 100 uM; format: toxicity
[2] = 1-Octanol/PBS buffer distribution coefficient, log D of the compound at pH 7.4 by HPLC/LC-MS analysis; format: physicochemical
[3] = Selectivity ratio of IC50 for human Nav1.1/beta1/2 transfected in HEK293-A cells to IC50 for human Nav1.7/beta1/2 transfected in HEK293-A cells
[4] = Unbound fraction in mouse plasma; format: ADME, cell-free
[5] = biological target: Sodium channel protein type 9 subunit alpha/beta-1/beta-2 (Homo sapiens, UniProt Q15858); assay: Inhibition of human Nav1.7/beta1/2 transfected in HEK293-A cells assessed as inhibition of channel current incubated for 5.5 mins by high-throughput electrophysiology system analysis; format: cell-based
[6] = biological target: Sodium channel protein type 9 subunit alpha/beta-1/beta-2 (Mus musculus, UniProt Q62205); assay: Inhibition of mouse Nav1.7/beta1/2 transfected in HEK293-A cells assessed as inhibition of channel current incubated for 5.5 mins by high-throughput electrophysiology system analysis; format: cell-based
[7] = biological target: Sodium channel protein type 5 subunit alpha/beta-1/beta-2 (Homo sapiens, UniProt Q14524); assay: (§1) Inhibition of human Nav1.5/beta1/2 transfected in HEK293-A cells assessed as inhibition of channel current incubated for 5.5 mins by high-throughput electrophysiology system analysis; format: toxicity, cell-based
Sequence of Sodium channel protein type 5 subunit alpha/beta-1/beta-2 (Q14524 whole entry): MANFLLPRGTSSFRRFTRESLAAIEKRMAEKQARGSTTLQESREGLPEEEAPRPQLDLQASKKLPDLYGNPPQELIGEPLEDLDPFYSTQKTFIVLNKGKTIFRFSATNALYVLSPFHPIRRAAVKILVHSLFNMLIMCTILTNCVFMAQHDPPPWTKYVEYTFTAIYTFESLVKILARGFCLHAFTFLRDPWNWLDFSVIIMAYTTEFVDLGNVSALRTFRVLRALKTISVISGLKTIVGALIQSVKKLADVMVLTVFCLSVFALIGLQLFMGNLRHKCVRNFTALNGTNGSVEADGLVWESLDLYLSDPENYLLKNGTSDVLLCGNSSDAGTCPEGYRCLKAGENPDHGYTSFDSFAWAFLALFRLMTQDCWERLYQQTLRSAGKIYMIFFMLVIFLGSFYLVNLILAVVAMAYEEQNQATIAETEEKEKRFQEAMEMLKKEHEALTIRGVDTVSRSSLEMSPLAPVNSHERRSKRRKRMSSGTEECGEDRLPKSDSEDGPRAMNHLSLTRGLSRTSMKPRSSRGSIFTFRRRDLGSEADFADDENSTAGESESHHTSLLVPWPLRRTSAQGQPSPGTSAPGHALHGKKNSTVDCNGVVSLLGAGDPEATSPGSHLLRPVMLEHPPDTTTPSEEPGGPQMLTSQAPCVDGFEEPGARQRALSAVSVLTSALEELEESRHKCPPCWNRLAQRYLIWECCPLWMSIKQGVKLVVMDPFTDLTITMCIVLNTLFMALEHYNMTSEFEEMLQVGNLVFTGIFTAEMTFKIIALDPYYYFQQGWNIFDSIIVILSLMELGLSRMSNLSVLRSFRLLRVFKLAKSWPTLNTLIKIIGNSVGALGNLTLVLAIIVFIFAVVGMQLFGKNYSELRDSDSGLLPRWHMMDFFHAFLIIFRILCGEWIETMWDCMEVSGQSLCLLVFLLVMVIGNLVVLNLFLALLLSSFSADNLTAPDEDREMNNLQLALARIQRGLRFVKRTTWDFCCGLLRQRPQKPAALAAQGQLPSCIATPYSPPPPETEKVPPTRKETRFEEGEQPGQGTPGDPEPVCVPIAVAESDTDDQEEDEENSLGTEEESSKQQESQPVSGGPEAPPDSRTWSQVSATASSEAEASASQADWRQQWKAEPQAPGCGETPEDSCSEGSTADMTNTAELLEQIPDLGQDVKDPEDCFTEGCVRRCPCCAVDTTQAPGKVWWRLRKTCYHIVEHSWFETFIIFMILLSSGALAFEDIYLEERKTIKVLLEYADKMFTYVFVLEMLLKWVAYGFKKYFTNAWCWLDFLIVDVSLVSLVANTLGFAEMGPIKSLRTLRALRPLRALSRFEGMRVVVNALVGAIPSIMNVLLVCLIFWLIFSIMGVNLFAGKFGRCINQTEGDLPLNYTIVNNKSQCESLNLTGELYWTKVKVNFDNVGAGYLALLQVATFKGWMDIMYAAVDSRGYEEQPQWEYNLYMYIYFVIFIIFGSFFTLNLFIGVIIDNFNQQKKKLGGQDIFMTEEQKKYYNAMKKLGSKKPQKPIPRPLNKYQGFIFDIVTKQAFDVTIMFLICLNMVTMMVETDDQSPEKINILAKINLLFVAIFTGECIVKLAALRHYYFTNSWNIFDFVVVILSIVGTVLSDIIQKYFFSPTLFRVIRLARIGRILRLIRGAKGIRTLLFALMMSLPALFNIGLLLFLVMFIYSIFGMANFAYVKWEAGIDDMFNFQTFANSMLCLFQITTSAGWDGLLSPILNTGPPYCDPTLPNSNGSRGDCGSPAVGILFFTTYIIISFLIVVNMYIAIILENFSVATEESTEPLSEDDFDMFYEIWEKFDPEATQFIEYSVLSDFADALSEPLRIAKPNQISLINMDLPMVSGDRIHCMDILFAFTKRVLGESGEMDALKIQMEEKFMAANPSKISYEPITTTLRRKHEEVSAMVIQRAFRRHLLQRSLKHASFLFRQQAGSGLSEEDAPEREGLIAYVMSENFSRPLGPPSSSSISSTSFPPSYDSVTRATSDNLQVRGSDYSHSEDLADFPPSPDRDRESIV
Sequence of Sodium channel protein type 5 subunit alpha/beta-1/beta-2 (O60939 whole entry, further chain): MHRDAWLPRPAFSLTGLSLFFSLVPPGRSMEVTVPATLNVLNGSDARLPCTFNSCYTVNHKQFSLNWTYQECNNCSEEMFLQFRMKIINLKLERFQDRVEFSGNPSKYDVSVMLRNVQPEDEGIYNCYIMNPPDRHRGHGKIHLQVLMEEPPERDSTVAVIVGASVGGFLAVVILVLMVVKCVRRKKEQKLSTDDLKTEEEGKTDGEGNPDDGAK
Sequence of Sodium channel protein type 5 subunit alpha/beta-1/beta-2 (Q07699 whole entry, further chain): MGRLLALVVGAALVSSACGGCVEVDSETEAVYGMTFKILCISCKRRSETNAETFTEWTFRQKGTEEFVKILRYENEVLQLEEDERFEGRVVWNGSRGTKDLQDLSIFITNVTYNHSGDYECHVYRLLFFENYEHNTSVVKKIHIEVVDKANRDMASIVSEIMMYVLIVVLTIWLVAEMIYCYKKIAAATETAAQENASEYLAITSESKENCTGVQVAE

[8] = Selectivity ratio of IC50 for mouse Nav1.7/beta1/2 transfected in HEK293-A cells to IC50 for human Nav1.7/beta1/2 transfected in HEK293-A cells; format: cell-based
[9] = biological target: Sodium channel protein type 1 subunit alpha/beta-1/beta-2 (Homo sapiens, UniProt P35498); assay: (§2) Inhibition of human Nav1.1/beta1/2 transfected in HEK293-A cells assessed as inhibition of channel current incubated for 5.5 mins by high-throughput electrophysiology system analysis; format: toxicity, cell-based
[10] = Selectivity ratio of IC50 for human Nav1.5/beta1/2 transfected in HEK293-A cells to IC50 for human Nav1.7/beta1/2 transfected in HEK293-A cells
[11] = Aqueous thermodynamic solubility of the compound at pH 6.8 measured after 4 hrs by HPLC-UV analysis; format: physicochemical; conditions: read-out: Therm_solubility
[12] = biological target: Nav1.5/beta1/beta2 sodium channel (Homo sapiens, UniProt Q14524); assay: as §1; format: toxicity, cell-based; conditions: human, HEK293-A cells transfected with human Nav1.5/beta1/2
[13] = AUC(0 to 24 hrs) in ddY mouse at 1 mg/kg, po by LC-MS/MS analysis; format: ADME, organism-based; parameters: dose 1 mg/kg, route po; conditions: in vivo
[14] = Bioavailability in ddY mouse at 1 mg/kg, iv by LC-MS/MS analysis; format: ADME, organism-based; conditions: in vivo
[15] = Total body clearance in ddY mouse at 1 mg/kg, iv by LC-MS/MS analysis; format: ADME, organism-based; conditions: in vivo
[16] = Volume of distribution at steady state in ddY mouse at 1 mg/kg, iv by LC-MS/MS analysis; format: ADME, organism-based; conditions: in vivo, read-out: Vdss
[17] = Half life in ddY mouse at 1 mg/kg, po by LC-MS/MS analysis; format: ADME, organism-based; conditions: in vivo
[18] = tested on: Mus musculus; assay: Analgesic activity against PSL-induced neuropathic pain mouse model assessed as reversal of thermal hyperalgesia at 1 mg/kg, po measured after 30 mins by plantar test; format: functional; conditions: 0.5 h
[19] = Cmax in ddY mouse at 1 mg/kg, po by LC-MS/MS analysis; format: ADME, organism-based; parameters: dose 1 mg/kg, route po; conditions: in vivo
[20] = Tmax in ddY mouse at 1 mg/kg, po by LC-MS/MS analysis; format: ADME, organism-based; conditions: in vivo
[21] = Ratio of fCmax in ddY mouse plasma at 1 mg/kg, po to IC50 for inhibition of mouse Nav1.7/beta1/2 transfected in HEK293-A cells
[22] = tested on: Mus musculus; assay: Analgesic activity against PSL-induced neuropathic pain mouse model assessed as reversal of thermal hyperalgesia at 3 mg/kg, po by plantar test; format: functional, organism-based
[23] = biological target: Nav1.1/beta1/beta2 sodium channel (Homo sapiens, UniProt P35498); assay: as §2; format: toxicity, cell-based; conditions: human, HEK293-A cells transfected with human Nav1.1/beta1/2
[24] = tested on: Mus musculus; assay: Analgesic activity against PSL-induced neuropathic pain mouse model assessed as reversal of thermal hyperalgesia at 1 mg/kg, po measured after 180 mins by plantar test; format: functional, organism-based
[25] = tested on: Mus musculus; assay: Analgesic activity against PSL-induced neuropathic pain mouse model assessed as reversal of thermal hyperalgesia at 1 mg/kg, po measured after 60 mins by plantar test; format: functional, organism-based

Sequence of hERG (KCNH2) (Q12809 whole entry): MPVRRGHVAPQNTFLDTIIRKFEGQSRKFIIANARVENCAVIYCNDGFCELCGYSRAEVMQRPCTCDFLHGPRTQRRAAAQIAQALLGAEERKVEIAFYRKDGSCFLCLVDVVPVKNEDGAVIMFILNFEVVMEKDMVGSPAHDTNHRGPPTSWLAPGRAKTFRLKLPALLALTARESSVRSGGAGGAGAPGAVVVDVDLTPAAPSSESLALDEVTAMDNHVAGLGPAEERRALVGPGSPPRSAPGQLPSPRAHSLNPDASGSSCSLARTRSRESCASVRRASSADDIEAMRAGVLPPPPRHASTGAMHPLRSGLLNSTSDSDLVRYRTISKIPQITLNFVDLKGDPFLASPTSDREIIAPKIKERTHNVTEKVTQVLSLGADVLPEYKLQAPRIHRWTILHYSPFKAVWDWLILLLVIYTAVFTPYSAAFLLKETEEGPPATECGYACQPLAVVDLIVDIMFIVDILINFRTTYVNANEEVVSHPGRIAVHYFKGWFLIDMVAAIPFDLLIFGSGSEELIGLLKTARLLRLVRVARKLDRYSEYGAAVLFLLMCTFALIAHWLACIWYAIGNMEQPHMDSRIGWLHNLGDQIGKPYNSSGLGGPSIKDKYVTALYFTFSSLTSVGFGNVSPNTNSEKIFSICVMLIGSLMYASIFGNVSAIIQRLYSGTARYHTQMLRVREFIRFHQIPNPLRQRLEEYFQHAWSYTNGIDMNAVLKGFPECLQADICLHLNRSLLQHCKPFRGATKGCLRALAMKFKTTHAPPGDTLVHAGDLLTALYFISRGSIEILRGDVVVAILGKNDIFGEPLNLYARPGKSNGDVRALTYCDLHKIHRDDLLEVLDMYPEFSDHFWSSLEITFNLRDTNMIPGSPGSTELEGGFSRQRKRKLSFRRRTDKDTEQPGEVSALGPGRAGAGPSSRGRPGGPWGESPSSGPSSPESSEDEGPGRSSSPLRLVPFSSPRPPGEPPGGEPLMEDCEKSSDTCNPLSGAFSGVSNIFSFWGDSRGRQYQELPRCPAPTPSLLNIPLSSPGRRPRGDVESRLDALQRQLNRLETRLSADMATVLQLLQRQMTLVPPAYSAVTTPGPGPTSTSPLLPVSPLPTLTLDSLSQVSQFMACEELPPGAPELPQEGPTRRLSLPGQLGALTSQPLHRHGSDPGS

Row | SMILES | logD [2] | fraction unbound [4] | pIC50 [5] | pIC50 [6] | solubility thermodynamic at 4 h [11] [µM] | inhibition at 100 µM [1] [%] | pIC50 [7] | pIC50 [9] | further results
1 | Cc1cn(-c2ccccc2)c2ccc(C(=O)NS(C)(=O)=O)cc12 | 1.1 | < 0.002 | 6.48 | 5.57 | > 660 | 17.1 | 4.10 | 4.10 | Ratio IC50 [3]: 240; Ratio IC50 [8]: 10; Ratio IC50 [10]: 240
2 | Cc1cn(-c2cncc(F)c2)c2ccc(C(=O)NS(=O)(=O)C3CC3)cc12 | – | – | 6.07 | 5.57 | – | -1.1 | < 3.52 | < 4.00 | –
3 | CS(=O)(=O)NC(=O)c1ccc2c(ccn2Cc2ccccc2)c1 | – | – | < 5.00 | < 5.00 | – | – | – | – | –
4 | O=C(NS(=O)(=O)N1CCC1)c1cc(C2CC2)c(OCC23CC4CC(CC(C4)C2)C3)cc1F | – | – | – | – | – | – | – | – | IC50 at 5.5 min [12]: 0.051 µM
5 | CS(=O)(=O)NC(=O)c1ccc2[nH]cc(-c3ccccc3)c2c1 | – | – | < 5.00 | < 5.00 | – | – | – | – | –
6 | CS(=O)(=O)NC(=O)c1ccc2c(ccn2-c2ccccc2)c1 | – | – | < 5.00 | < 5.00 | – | – | – | – | –
7 | Cc1cn(-c2cccnc2)c2ccc(C(=O)NS(C)(=O)=O)cc12 | – | – | < 5.00 | – | – | -0.1 | < 3.52 | – | –
8 | Cn1cc(-c2ccccc2)c2cc(C(=O)NS(C)(=O)=O)ccc21 | – | – | < 5.00 | < 5.00 | – | – | – | – | –
9 | C[C@@H](c1cc(Cl)cc(Cl)c1)N1CCC(COc2cc(F)c(C(=O)NS(C)(=O)=O)cc2C2CC2)CC1 | – | – | 9.22 | – | – | – | 6.26 | – | IC50 at 5.5 min [23]: 0.202 µM
10 | Cc1cn(-c2ccc(Cl)cc2)c2ccc(C(=O)NS(C)(=O)=O)cc12 | 1.8 | – | 6.59 | 5.10 | 26 (≈ 9.43 µg/mL) | 51.1 | 4.64 | < 4.00 | –
11 | Cc1cn(-c2cncc(C(F)(F)F)c2)c2cc(F)c(C(=O)NS(=O)(=O)C3CC3)cc12 | 0.6 | 0.007 | 7.40 | 7.82 | 25 (≈ 11 µg/mL) | -2.9 | 4.49 | 5.92 | AUC(0-t) [13]: 23.6 µM·h; Ratio IC50 [3]: 30; Activity [24]: inactive; half-life [17]: 13.5 h; Efficacy [18]: 64%; Cmax [19]: 1400 nM; Tmax [20]: 6 h; Ratio [21]: 0.65; Activity [25]: Active
12 | CS(=O)(=O)NC(=O)c1cc(Cl)c(Oc2cnc(C3CC3)c(Cl)c2)cc1F | – | – | 7.28 | 5.77 | – | – | 4.54 | 4.66 | –
13 | Cc1cn(-c2ccc(C(F)(F)F)nc2)c2ccc(C(=O)NS(=O)(=O)C3CC3)cc12 | 1 | 0.014 | 7.23 | 5.80 | 29 (≈ 12.3 µg/mL) | 21 | 3.68 | < 4.00 | –
14 | Cc1cn(-c2cncc(Cl)c2)c2ccc(C(=O)NS(=O)(=O)C3CC3)cc12 | 0.8 | – | 7.07 | 6.34 | 35 (≈ 13.6 µg/mL) | 34.1 | 3.97 | 5.00 | –
15 | Cc1cn(-c2cccnc2)c2ccc(C(=O)NS(=O)(=O)C3CC3)cc12 | – | – | 5.80 | < 5.00 | – | -8.8 | < 3.52 | < 4.00 | –
16 | Cc1cn(-c2ccccc2F)c2ccc(C(=O)NS(C)(=O)=O)cc12 | – | – | 5.23 | 4.92 | – | – | 4.00 | – | –

Continued, in another order:

Row | logD [2] | fraction unbound [4] | pIC50 [5] | pIC50 [6] | solubility thermodynamic at 4 h [11] [µM] | SMILES | inhibition at 100 µM [1] [%] | pIC50 [7] | pIC50 [9] | further results
17 | 1.8 | < 0.002 | 7.49 | 6.09 | 440 (≈ 164 µg/mL) | Cc1cn(-c2cccc(F)c2)c2ccc(C(=O)NS(=O)(=O)C3CC3)cc12 | 42.1 | 4.85 | 5.32 | AUC(0-t) [13]: 12.1 µM·h; bioavailability [14]: 65%; clearance [15]: 2.58 mL/min/kg; Vd [16]: 0.57 L/kg; half-life [17]: 5 h; Efficacy [18]: 79%; Cmax [19]: 1700 nM; Tmax [20]: 1 h; Ratio [21]: <0.0042
18 | 1.5 | 0.004 | 7.72 | 7.80 | 230 (≈ 95.3 µg/mL) | Cc1cn(-c2cccc(C(F)(F)F)c2)c2cc(F)c(C(=O)NS(C)(=O)=O)cc12 | 54.8 | 4.85 | < 4.00 | Ratio IC50 [3]: 5000; Ratio IC50 [10]: 740; Activity [22]: Active
19 | 1.2 | < 0.002 | 7.42 | 6.05 | 600 (≈ 208 µg/mL) | Cc1cn(-c2cccc(F)c2)c2ccc(C(=O)NS(C)(=O)=O)cc12 | 13.2 | 4.46 | 4.92 | –
20 | 1.6 | – | 7.24 | 5.80 | 550 (≈ 188 µg/mL) | Cc1cccc(-n2cc(C)c3cc(C(=O)NS(C)(=O)=O)ccc32)c1 | 51 | – | 4.41 | –
21 | 0.8 | < 0.002 | 7.85 | 6.01 | 430 (≈ 157 µg/mL) | Cc1cn(-c2cccc(F)c2)c2cc(F)c(C(=O)NS(C)(=O)=O)cc12 | 15.6 | 4.51 | < 4.00 | –
22 | 1.8 | < 0.002 | 7.06 | 5.77 | 620 (≈ 225 µg/mL) | Cc1cn(-c2cccc(Cl)c2)c2ccc(C(=O)NS(C)(=O)=O)cc12 | 43.5 | 4.47 | 4.70 | –
23 | 1.1 | < 0.002 | 6.72 | 5.55 | 140 (≈ 48.5 µg/mL) | Cc1cn(-c2ccc(F)cc2)c2ccc(C(=O)NS(C)(=O)=O)cc12 | 5.6 | 4.38 | 4.28 | –
24 | 1.7 | 0.002 | 7.47 | 6.17 | > 820 | Cc1cn(-c2cccc(C(F)(F)F)c2)c2ccc(C(=O)NS(C)(=O)=O)cc12 | 49.8 | 4.57 | 4.70 | –
25 | 1.2 | < 0.002 | 6.72 | 5.68 | 580 (≈ 208 µg/mL) | COc1cccc(-n2cc(C)c3cc(C(=O)NS(C)(=O)=O)ccc32)c1 | 18.9 | 4.15 | 4.10 | –
